In US20210299079A1, “MONOMETHYL FUMARATE-CARRIER CONJUGATES AND METHODS OF THEIR USE” (Flagship Pioneering Innovations V, Inc., priority 2018, published 2021):
Counter-ions that a name gives are not always drawn.

Legend:
[1] = Stability of conjugates in Simulated Gastric Fluid (SGF); assay type: in vitro ADME; settings: SGF pH 1.6 with pepsin, 37° C., 1 μM compound
Procedure, shortened: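 Compound at 1 μM (from 1 mM DMSO stock) in pH 1.6 NaCl medium with FaSSIF powder and 0.1 mg/mL pepsin, mixed at 37° C. Aliquots quenched with equal volume acetonitrile at T0 and regular intervals; LC/MS gives degradation rate.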

[2] = In vitro Colonic Material Stability Assay; assay type: in vitro ADME; settings: colonic material slurry in YCFAC media, anaerobic, 1 or 10 μM
Method: Assay 3. In vitro Colonic Material Stability Assay. This assay was used to assess the stability of a conjugate in a large intestine. All experiments were performed in an anaerobic chamber containing 90% nitrogen, 5% hydrogen and 5% carbon dioxide. Colonic material was resuspended as a slurry (15% w/v final concentration) in pre-reduced, anaerobically sterilized dilution blanks (Anaerobe Systems AS-908). The colonic material was then inoculated into 96 well plates containing YCFAC media (Anaerobe Systems AS-680) or other suitable media (6.7 μL slurry into 1 mL total media). Compounds or groups of compounds were added to each individual well to reach a final analyte concentration of 1 or 10 μM, and the material was mixed by pipetting. Sample was removed after set timepoints (0, 120, 240, 480, 1440, 2880 minutes after initiation of the assay), quenched with acetonitrile containing internal standard, and analyzed by LC/MS.

[3] = tested on: experimental autoimmune encephalomyelitis (EAE); test: In Vivo EAE Model of Multiple Sclerosis; parameters: species or system C57BL/6J mice; settings: Study 2, oral, amount approximately equimolar to 100 mg/kg DMF, 28 days
Method: For experimental autoimmune encephalomyelitis (EAE) study, 8- to 11-week-old C57BL/6J mice were anesthetized and subcutaneously injected with […] and […]. Pertussis toxin (200 ng/mouse) was applied i.p. on days 0. Daily clinical evaluation was performed via a 5-point scale, and the clinical progression was observed over 28 days (FIG. 2A). […] At the end of the study, flow cytometry analysis was performed on the spleen (n=8 per group). […] Statistical analysis was performed with GraphPad Prism (GraphPad Software). Unpaired t test was used to assess significance between the control (Vehicle) and each treatment group. For experimental autoimmune encephalomyelitis (EAE) studies, 8- to 11-week old C57BL/6J mice were anesthetized and subcutaneously injected with […] and […]. Pertussis toxin (200 ng/mouse) was applied intraperitoneally on day 0. Daily clinical evaluation as performed using a 5-point scale and the clinical progression was observed over 28 days (FIGS. 2C and 2D).

[4] = Stability of conjugates in Simulated Intestinal Fluid (SIF); assay type: in vitro ADME; settings: SIF pH 6.7 with pancreatin, 37° C., 1 μM compound
Procedure, shortened: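 Compounds at 1 μM in fresh simulated intestinal fluid: FaSSIF powder in pH 6.7 phosphate buffer with pancreatin. Agitated at 37 °C; aliquots taken at T0 and regular intervals, quenched with 1 volume acetonitrile. Degradation rates determined by LC/MS.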

[5] = Gastrointestinal (GI) Exposure to Propionate (Study 1); assay type: in vivo, CD-1 mice; settings: mouse; for Propionate-d3 AUClast / Propionate-d3 Tmax: single oral dose: Propionate-d3 62 mg/kg, Compound 3-d12 110 mg/kg, Compound 6-d9 91 mg/kg
Method: (§1) In order to measure propionate concentrations along the GI track, CD-1 mice were orally administered a single dose of deuterated sodium propionate, Compound 3 comprising deuterated propionate, or Compound 6 comprising deuterated propionate (Propionate-d3, Compound 3-d12, and Compound 6-d9, respectively; suspension, 1% (w/v) methyl cellulose in deionized water). The amounts of compound dosed were normalized to provide approximately equimolar amounts of […] (Propionate-d3 at 62 mg/kg, Compound 3-d12 at 110 mg/kg, and Compound 6-d9 at 91 mg/kg). […] Blood samples were collected in K2EDTA tubes and stored on wet ice no more than 30 min and then further processed to plasma. GI samples were placed into separate labeled, pre-weighted collection tubes and frozen before analysis. Brain samples were homogenized prior to analysis. Samples were subsequently worked up and analyzed by LC-MS/MS for deuterated propionate concentration. Propionate concentrations versus time for different tissues are depicted in FIGS. 4A-4H and 5A-5C.

[6] = Gastrointestinal (GI) Exposure to Monomethylfumarate (MMF) (Study 2); assay type: in vivo, CD-1 mice; settings: mouse, samples of Study 1, single oral dose
Method: as §1
Samples from Example 6, Study 1 were also analyzed by LC-MS/MS for monomethylfumarate concentrations. MMF concentrations versus time for different tissues are depicted in FIGS. 6A-6F.

IL-8 = test: Neutrophil Chemokine Production Assay: IL-8; assay type: cell-based; settings: human neutrophils, 12 h
Method: (§2) A volume 25 mL of human blood was layered over 15 mL of Histopaque®-1077 and centrifuged at 500 g, R^T, for 30 min with no break applied to the centrifuge. The PBMC band and Histopaque®-1077 layer were removed leaving behind the bottom red layer which was mixed with 40 mL of 1× red blood cell (RBC) lysis buffer (Sigma-Aldrich) was and split into two 50 mL tubes. The volume for both fractions was brought to 50 mL with RBC lysis buffer, mixed by inversion, and then incubated at RT for 10 min. Solutions were centrifuged at 250 g, for 10 min at RT and the supernatant liquids removed. The reddish pellets were re-suspended in 1 mL of RBC lysis buffer and combined. The cell suspension was incubated for 5 min at RT in RBC lysis buffer. After incubation 45 mL of Hanks Balanced Salt Solution with no calcium, magnesium or phenol red (HBSS—) was added, the cell suspension was spun (250 g for 10 min at RT), and supernatant liquids were removed. The white pellet was re-suspended in 1 mL of HBSS—, and cell counts were determined. The neutrophil cell suspension was brought to a concentration of 1.11e6 cells/mL in RPMI complete (Sigma-Aldrich), and 180 μL of cell suspension was transferred to all wells within a sterile 96-well tissue culture treated plate resulting in 2.0×10^5 cells/well. […] After incubation, 10 μL of 2 μg/mL LPS solution in RPMI complete was added to each well except for control wells, which received an additional 10 μL of media. Cells were incubated for 12 h (37° C., 5% CO2), after which plates were centrifuged at 250 g, RT, for 5 min and supernatant liquids were obtained and stored at −80° C. until analyzed via Luminex® Multiplex Assay for various chemokines and cytokines. Three data points were acquired from two different blood donors and averaged.

MIP-1α = test: Neutrophil Chemokine Production Assay: MIP-1α; assay type: cell-based; settings: human neutrophils, 12 h
Method: as §2

MIP-1β = test: Neutrophil Chemokine Production Assay: MIP-1β; assay type: cell-based; settings: human neutrophils, 12 h
Method: as §2

## CCC(=O)O[C@H]1[C@H](OC(=O)CC)[C@H](OC(=O)/C=C/C(=O)OC)O[C@@H](C)[C@H]1OC(=O)CC [Compound 1, Methyl ((2S,3S,4R,5R,6S)-6-methyl-3,4,5-tris(propionyloxy)tetrahydro-2H-pyran-2-yl) fumarate]
[1]
  Assay 1 (SGF) (% Remaining @ 1 hour): C (C: >75% of the tested compound remaining)
[2]
  Assay 3 (% Remaining at 24 h): C (C: >75% of the tested compound remaining)
[3]
  EAE score (5-point scale) compared to control (vehicle only): lower EAE scores

## CCC(=O)OC[C@H]1O[C@@H](OC(=O)/C=C/C(=O)OC)[C@H](OC(=O)CC)[C@@H](OC(=O)CC)[C@@H]1OC(=O)CC [Compound 3, Methyl ((2S,3R,4S,5R,6R)-3,4,5-tris(propionyloxy)-6-((propionyloxy)methyl)tetrahydro-2H-pyran-2-yl) fumarate]
[1]
  Assay 1 (SGF) (% Remaining @ 1 hour): C (C: >75% of the tested compound remaining)
[4]
  Assay 2 (SIF) (% @ Remaining 4 hours): B (B: 25-75% of the tested compound remaining)
[2]
  Assay 3 (% Remaining at 24 h): C (C: >75% of the tested compound remaining)
[3]
  EAE score (5-point scale) compared to control (vehicle only): lower EAE scores
  EAE score (5-point scale) compared to mice treated with dimethyl fumarate: lower or similar EAE scores

## [2H]C([2H])([2H])CC(=O)OCC1OC(OC(=O)C=CC(=O)OC)C(OC(=O)CC([2H])([2H])[2H])C(OC(=O)CC([2H])([2H])[2H])C1OC(=O)CC([2H])([2H])[2H] (stereo not drawn) [Compound 3-d12]
[5]; Brain
  Propionate-d3 AUClast: 1.18 nmol·h/g
  Propionate-d3 Tmax: 0.25 h
[5]; Cecum
  Propionate-d3 AUClast: 4010 nmol·h/g
  Propionate-d3 Tmax: 2.00 h
[5]; Distal Colon
  Propionate-d3 AUClast: 2310 nmol·h/g
  Propionate-d3 Tmax: 4.00 h
[5]; Distal Intestine
  Propionate-d3 AUClast: 3880 nmol·h/g
  Propionate-d3 Tmax: 1.00 h
[5]; Proximal Colon
  Propionate-d3 AUClast: 2910 nmol·h/g
  Propionate-d3 Tmax: 2.00 h
[5]; Proximal Intestine
  Propionate-d3 AUClast: 3160 nmol·h/g
  Propionate-d3 Tmax: 0.25 h
[5]; Stomach
  Propionate-d3 AUClast: 4950 nmol·h/g
  Propionate-d3 Tmax: 1.00 h
[5]; single oral dose, GI tissues
  region where the highest concentrations (Cmax) of propionate-d3 were observed: intestines (proximal and distal)
[6]; Cecum
  MMF AUClast: 297 nmol·h/g
  MMF Tmax: 2.00 h
[6]; Distal Colon
  MMF AUClast: 568 nmol·h/g
  MMF Tmax: 4.00 h
[6]; Distal Intestine
  MMF AUClast: 156 nmol·h/g
  MMF Tmax: 1.00 h
[6]; Proximal Colon
  MMF AUClast: 465 nmol·h/g
  MMF Tmax: 2.00 h
[6]; Proximal Intestine
  MMF AUClast: 56.4 nmol·h/g
  MMF Tmax: 0.50 h
[6]; Stomach
  MMF AUClast: 3180 nmol·h/g
  MMF Tmax: 1.00 h

## CCCC(=O)O[C@@H]1[C@@H](OC(=O)CCC)[C@H](C)O[C@@H](OC(=O)/C=C/C(=O)OC)[C@@H]1OC(=O)CCC [Compound 15, Methyl ((2S,3R,4R,5S,6S)-3,4,5-tris(butyryloxy)-6-methyltetrahydro-2H-pyran-2-yl) fumarate]
[1]
  Assay 1 (SGF) (% Remaining @ 1 hour): B (B: 25-75% of the tested compound remaining)
[4]
  Assay 2 (SIF) (% @ Remaining 4 hours): A (A: <25% of the tested compound remaining)
[2]
  Assay 3 (% Remaining at 24 h): C (C: >75% of the tested compound remaining)
[3]
  EAE score (5-point scale) compared to control (vehicle only): lower EAE scores

## CCCC(=O)O[C@H]1[C@H](OC(=O)/C=C/C(=O)OC)OC[C@@H](OC(=O)CCC)[C@H]1OC(=O)CCC [Compound 24, Methyl ((2S,3R,4R,5R)-3,4,5-tris(butyryloxy)tetrahydro-2H-pyran-2-yl) fumarate]
[1]
  Assay 1 (SGF) (% Remaining @ 1 hour): C (C: >75% of the tested compound remaining)
[4]
  Assay 2 (SIF) (% @ Remaining 4 hours): A (A: <25% of the tested compound remaining)
[3]
  EAE score (5-point scale) compared to control (vehicle only): lower EAE scores

## CC(O)CC(=O)O (stereo not drawn) [β-hydroxybutyric acid]
IL-8; Conc. 200.0 μM
  % IL-8 (Vehicle + LPS = 100%): − (− = >90% Vehicle)
IL-8; Conc. 2000.0 μM
  % IL-8 (Vehicle + LPS = 100%): + (+ = <90% Vehicle)
MIP-1α; Conc. 200.0 μM
  % MIP-1α (Vehicle + LPS = 100%): − (− = >90% Vehicle)
MIP-1α; Conc. 2000.0 μM
  % MIP-1α (Vehicle + LPS = 100%): ++ (++ = <70% Vehicle)
MIP-1β; Conc. 200.0 μM
  % MIP-1β (DMSO + LPS = 100%): + (+ = <90% Vehicle)
MIP-1β; Conc. 2000.0 μM
  % MIP-1β (DMSO + LPS = 100%): + (+ = <90% Vehicle)
